# In patent US5739283A, “Prevention of invasive pulmonary aspergillosis with serine proteinase inhibitors” (The Ohio State Research Foundation, priority 1995, dated 1998):
# Where a name gives a salt, the structure may show the parent alone.
# B1: SSI: protein produced and secreted by streptomyces, purified from Streptomyces albogriseolus strains (protein, UniProt P01006 32-144, looked up)
# Subtilisin inhibitor: DAPSALYAPSALVLTVGKGVSATTAAPERAVTLTCAPGPSGTHPAAGSACADLAAVGGDLNALTRGEDVMCPMVYDPVLLTVDGVWQGKRVSYERVFSNECEMNAHGSSVFAF
# Tests used:
# [1] = biological target: porcine pancreatic elastolytic serine protease (Sus scrofa, UniProt P00772); assay: Residual serine protease activity after preincubation with serine protease inhibitors; type: biochemical; settings: for Reduction of the activity of porcine serine protease (in words): summary of Table 3
# Procedure: (§1) Reaction mixtures for each protease were prepared by adding the protease to 0.1M Hepes, pH 7.5. The experimental samples were then preincubated for 30 minutes at 22° C. with 1 mM of the inhibitors. At the end of the 30 minute pre-incubation, the chromogenic substrate Suc-Ala-Ala-Pro-Leu-p-Na at a final concentration of 1 mM was added to each sample. The enzyme activity in the samples was monitored by measuring the release of pNA from the chromogenic substrate at 22° C. during a 10 minute reaction time. The enzyme activity in each experimental sample as a percentage of the enzyme activity in the control sample which was taken to be 100% was then determined.
# [2] = biological target: T1, A. flavus Serine Protease (Aspergillus flavus, UniProt P35211); assay: as above; type: biochemical; settings: for Prevention of hydrolysis of Suc-Ala-Ala-Pro-Leu-pNA by A. flavus serine protease (in words): summary of Table 3
# T1 construct: The extracellular serine proteases of A. fumigatus and A. flavus were purified from 5 day cultures; endogenous in cells; host or cells: Aspergillus flavus 5-day culture, extracellular fluid, bacitracin-Sepharose 4B
# Source text: (§2) The serine protease inhibitors 4-carboxamido-substituted cephem (L-658,758), (S-(R*,S*))-4-((3,3-diethyl-1-((1-(4-methyl-phenyl)butylamino)carbonyl)-4-oxo-2-azetidinyl)oxy)-benzeneacetic acid 2-amino-2-methyl-1-propanol salt (L-680, 833) are known to irreversibly bind to the active site of the elastolytic serine protease obtained from neutrophils. It is also known that the serine protease inhibitor PMSF irreversibly binds to the active site of all serine proteases. The ability of the serine protease inhibitors L-658,758 and L-680,833, both of which were obtained from Merck Chemical Company, Rahway, N.J., and PMSF to block the proteolytic activity of the elastolytic serine proteases from Aspergillus fumigatus and Aspergillus flavus were tested as follows.
# as §1
# [3] = biological target: T2, A. fumigatus Serine Protease (Aspergillus fumigatus, UniProt P28296); assay: as above; type: biochemical; settings: for Prevention of hydrolysis of Suc-Ala-Ala-Pro-Leu-pNA by A. fumigatus serine protease (in words): summary of Table 3; for Serine protease (SP) activity (%), A. fumigatus Serine Protease: inhibitor 1 mM, pH 7.5, 30 min preincubation at 22° C., control = 100%
# T2 construct: The extracellular serine proteases of A. fumigatus and A. flavus were purified from 5 day cultures; endogenous in cells; host or cells: Aspergillus fumigatus 5-day culture, extracellular fluid, bacitracin-Sepharose 4B
# Source text: as §2, §1
# [4] = tested on: CC(C)C[C@H](NC(=O)[C@@H]1CCCN1C(=O)[C@H](C)NC(=O)[C@H](C)NC(=O)CCC(=O)O)C(=O)Nc1ccc([N+](=O)[O-])cc1; assay: purified protein, by the assay type; settings: other: 22° C., pH 8.0, Lineweaver-Burk plot
# Procedure: (§3) First the Km values of the elastolytic serine proteases from A. fumigatus and A. flavus were calculated. […] The Km of the elastolytic serine proteases from A. fumigatus and A. flavus were determined using the synthetic chromogenic molecule Suc-Ala-Ala-Pro-Leu-pNa as a substrate. Reaction mixtures were prepared containing 5 μm of various concentrations of the chromogenic substrate dissolved in dimethyl sulfoxide, 990 μm of 0.1M Tris-HCl, buffer pH 8.0, and 5 μm of the aspergillus protease (0.65 mg/ml). The release of pNa from the substrate and the subsequent increase in absorbance of the reaction mixture at 410 nm was monitored at 22° C. for 10 minutes using a Hewlett Packard 8451A diode array spectrophotometer. The initial rates of the enzymatic reaction at 22° C. were then determined for each concentration of substrate and the reciprocals plotted on a Lineweaver-Burk plot.
# (§4) Next the ability of the reversible subtilisin-type inhibitors Barley ASI, purified SSI, and recombinant SSI and of the reversible chymotrypsin-type inhibitors Eglin C, potato protease I1, and potato protease I2 to block hydrolysis of the synthetic chromogenic substrate by the aspergillus elastolytic serine proteases was evaluated. Various concentrations of each inhibitor were pre-incubated for 5 minutes in samples containing the buffer and protease. […]
# [5] = background statement; cited from earlier work
# [6] = statement without test; cited from earlier work
# [7] = Toxicity of the composition in irradiated, uninoculated mice; type: in vivo, Balb/c mice; settings: Experiment 1, seven 10 μl treatments of the 50 mg/ml composition over 48 hours
# Procedure: Tests were conducted to assess the effect of treatment with the pharmaceutical compositions of the present invention on the pathogenesis of invasive pulmonary aspergillosis in immunocompromised animals. To prevent secondary bacterial or viral infections in the treated and control animals, pathogen-free eight-week old female Balb/c mice were housed in a Bioclean laminar flow hood and provided with oxytetracylcine (100 mg/l)-neomycin sulfate (10 mg/l), pH 2.5, from 7 days prior to irradiation until the end of each experiment. Following seven days of treatment with the antibiotics, one group of animals was made immunodeficient by exposure to 400 rads of gamma radiation from a Cesium 137 source.
# To test the toxicity of the pharmaceutical composition of example 1, a second group of irradiated mice, inoculated with 30 ul of Tween alone were treated with a […] the pharmaceutical composition from example 1 according to the same schedule for a total of seven treatments.
# Twenty-five, irradiated, uninoculated animals were also treated with […] of the pharmaceutical composition of example 4 according to the same schedule to assess the toxicity of the composition containing potato protease inhibitor in immunocompromised animals. The effect of treatment with the pharmaceutical composition of example 4 on the survival of uninoculated and aspergillus-inoculated animals is shown in Table 7.
# [8] = biological target: A. fumigatus elastolytic serine protease (Aspergillus fumigatus, UniProt P28296); assay: Inhibition constants (Ki) of reversible inhibitors for A. fumigatus elastolytic serine protease, chromogenic substrate; settings: summary of Table 2
# Procedure: as §3, §4
# [9] = inhibitor 1 mM, pH 7.5, 30 min preincubation at 22° C., control = 100%
# T2 sequence (P28296 122-403): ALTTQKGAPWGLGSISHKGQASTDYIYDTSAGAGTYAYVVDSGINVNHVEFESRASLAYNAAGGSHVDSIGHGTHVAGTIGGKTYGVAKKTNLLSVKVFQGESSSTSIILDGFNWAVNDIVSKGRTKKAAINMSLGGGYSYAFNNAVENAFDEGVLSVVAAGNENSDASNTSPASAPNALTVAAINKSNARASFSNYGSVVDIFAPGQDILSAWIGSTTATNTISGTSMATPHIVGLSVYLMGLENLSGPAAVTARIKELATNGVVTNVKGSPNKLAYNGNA
# T1 sequence (P35211 122-403): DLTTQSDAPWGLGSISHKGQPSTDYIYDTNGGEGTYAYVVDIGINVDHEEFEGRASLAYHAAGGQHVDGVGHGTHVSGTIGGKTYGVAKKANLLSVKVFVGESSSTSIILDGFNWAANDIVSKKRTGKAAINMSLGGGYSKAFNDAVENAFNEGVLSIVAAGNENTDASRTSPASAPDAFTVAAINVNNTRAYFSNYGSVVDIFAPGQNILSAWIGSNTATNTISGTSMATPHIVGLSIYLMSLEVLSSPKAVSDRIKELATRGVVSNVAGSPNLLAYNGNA
# porcine pancreatic elastolytic serine protease, sequence (P00772 27-266): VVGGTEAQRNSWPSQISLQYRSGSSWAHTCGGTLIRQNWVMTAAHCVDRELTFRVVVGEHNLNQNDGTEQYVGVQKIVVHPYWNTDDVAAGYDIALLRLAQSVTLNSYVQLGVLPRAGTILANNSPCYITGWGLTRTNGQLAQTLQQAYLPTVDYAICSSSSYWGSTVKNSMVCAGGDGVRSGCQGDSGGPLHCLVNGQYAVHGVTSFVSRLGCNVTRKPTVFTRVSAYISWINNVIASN
# A. fumigatus elastolytic serine protease, sequence (P28296 122-403): as the sequence (P28296 122-403) above
molecule,measurement,setting,value
"CCC[C@@H](NC(=O)N1C(=O)C(CC)(CC)[C@@H]1Oc1ccc(CC(=O)O)cc1)c1ccc(C)cc1 [L680,833, (S-(R*,S*))-4-((3,3-diethyl-1-((1-(4-methyl-phenyl)butylamino)carbonyl)-4-oxo-2-azetidinyl)oxy)-benzeneacetic acid 2-amino-2-methyl-1-propanol salt]",activity at 1000 µM,"[1]; inhibitor 1 mM, pH 7.5, 30 min preincubation at 22° C., control = 100%, read-out: Serine protease (SP) activity (%), Porcine pancreas Serine Protease",12%
same,Reduction of the activity of porcine serine protease (in words),[1],effective at reducing the activity
same,activity at 1000 µM,"[2]; inhibitor 1 mM, pH 7.5, 30 min preincubation at 22° C., control = 100%, read-out: Serine protease (SP) activity (%), A. flavus Serine Protease",89%
same,Prevention of hydrolysis of Suc-Ala-Ala-Pro-Leu-pNA by A. flavus serine protease (in words),[2],ineffective
same,activity at 1000 µM,"[3]; pH 7.5, read-out: Serine protease (SP) activity (%), A. fumigatus Serine Protease",93%
same,Prevention of hydrolysis of Suc-Ala-Ala-Pro-Leu-pNA by A. fumigatus serine protease (in words),[3],ineffective
A. fumigatus elastolytic serine protease (Aspergillus fumigatus Af293),Km,[4],350 µM
C[C@@H]1[C@H](O)[C@@H](C)/C=C/C=C/C=C/C=C/C=C/C=C/C=C/[C@H](O[C@@H]2O[C@H](C)[C@@H](O)[C@H](N)[C@@H]2O)C[C@@H]2O[C@](O)(C[C@@H](O)C[C@@H](O)[C@H](O)CC[C@@H](O)C[C@@H](O)CC(=O)O[C@H]1C)C[C@H](O)[C@H]2C(=O)O [amphotericin B],Nephrotoxicity,[5],serious side effect
A. flavus elastolytic serine protease (Aspergillus flavus),Km,[4],570 µM
"CO[C@H]1C(=O)N2C(C(=O)N3CCC[C@H]3C(=O)O)=C(COC(C)=O)CS(=O)(=O)[C@H]12 [L658,758, 4-carboxamido-substituted cephem]","Serine protease (SP) activity (%), Porcine pancreas Serine Protease",[1]; [9],6.6%
same,Reduction of the activity of porcine serine protease (in words),[1],effective at reducing the activity
same,"Serine protease (SP) activity (%), A. flavus Serine Protease",[2]; [9],91%
same,Prevention of hydrolysis of Suc-Ala-Ala-Pro-Leu-pNA by A. flavus serine protease (in words),[2],ineffective
same,"Serine protease (SP) activity (%), A. fumigatus Serine Protease",[3],93%
same,Prevention of hydrolysis of Suc-Ala-Ala-Pro-Leu-pNA by A. fumigatus serine protease (in words),[3],ineffective
O=S(=O)(F)Cc1ccccc1 [PMSF],Toxicity (in words),[6],highly toxic
same,"Serine protease (SP) activity (%), Porcine pancreas Serine Protease",[1]; [9],0%
same,Reduction of the activity of porcine serine protease (in words),[1],reduced the enzymatic activity
same,"Serine protease (SP) activity (%), A. flavus Serine Protease",[2]; [9],0%
same,Prevention of hydrolysis of Suc-Ala-Ala-Pro-Leu-pNA by A. flavus serine protease (in words),[2],reduced the enzymatic activity
same,"Serine protease (SP) activity (%), A. fumigatus Serine Protease",[3],0.89%
same,Prevention of hydrolysis of Suc-Ala-Ala-Pro-Leu-pNA by A. fumigatus serine protease (in words),[3],reduced the enzymatic activity
B1,"Mortality of treated, uninoculated, immunocompromised animals",[7],no mortality
same,Inhibition of the elastolytic serine protease from A. fumigatus (in words),[8],greatest inhibitory effect
